As a reminder, the IC50 is the concentration needed to halve the response being measured.

Data on 12 compounds can be found in patent US11312712B2, “Azabenzimidazoles and their use as AMPA receptor modulators” (Janssen Pharmaceutica NV, priority 2015, dated 2022).

GluA1o-γ8 (GRIA1o-CACNG8 fusion construct), sequence (P42261 other isoform, or with tags, fused parts or gaps): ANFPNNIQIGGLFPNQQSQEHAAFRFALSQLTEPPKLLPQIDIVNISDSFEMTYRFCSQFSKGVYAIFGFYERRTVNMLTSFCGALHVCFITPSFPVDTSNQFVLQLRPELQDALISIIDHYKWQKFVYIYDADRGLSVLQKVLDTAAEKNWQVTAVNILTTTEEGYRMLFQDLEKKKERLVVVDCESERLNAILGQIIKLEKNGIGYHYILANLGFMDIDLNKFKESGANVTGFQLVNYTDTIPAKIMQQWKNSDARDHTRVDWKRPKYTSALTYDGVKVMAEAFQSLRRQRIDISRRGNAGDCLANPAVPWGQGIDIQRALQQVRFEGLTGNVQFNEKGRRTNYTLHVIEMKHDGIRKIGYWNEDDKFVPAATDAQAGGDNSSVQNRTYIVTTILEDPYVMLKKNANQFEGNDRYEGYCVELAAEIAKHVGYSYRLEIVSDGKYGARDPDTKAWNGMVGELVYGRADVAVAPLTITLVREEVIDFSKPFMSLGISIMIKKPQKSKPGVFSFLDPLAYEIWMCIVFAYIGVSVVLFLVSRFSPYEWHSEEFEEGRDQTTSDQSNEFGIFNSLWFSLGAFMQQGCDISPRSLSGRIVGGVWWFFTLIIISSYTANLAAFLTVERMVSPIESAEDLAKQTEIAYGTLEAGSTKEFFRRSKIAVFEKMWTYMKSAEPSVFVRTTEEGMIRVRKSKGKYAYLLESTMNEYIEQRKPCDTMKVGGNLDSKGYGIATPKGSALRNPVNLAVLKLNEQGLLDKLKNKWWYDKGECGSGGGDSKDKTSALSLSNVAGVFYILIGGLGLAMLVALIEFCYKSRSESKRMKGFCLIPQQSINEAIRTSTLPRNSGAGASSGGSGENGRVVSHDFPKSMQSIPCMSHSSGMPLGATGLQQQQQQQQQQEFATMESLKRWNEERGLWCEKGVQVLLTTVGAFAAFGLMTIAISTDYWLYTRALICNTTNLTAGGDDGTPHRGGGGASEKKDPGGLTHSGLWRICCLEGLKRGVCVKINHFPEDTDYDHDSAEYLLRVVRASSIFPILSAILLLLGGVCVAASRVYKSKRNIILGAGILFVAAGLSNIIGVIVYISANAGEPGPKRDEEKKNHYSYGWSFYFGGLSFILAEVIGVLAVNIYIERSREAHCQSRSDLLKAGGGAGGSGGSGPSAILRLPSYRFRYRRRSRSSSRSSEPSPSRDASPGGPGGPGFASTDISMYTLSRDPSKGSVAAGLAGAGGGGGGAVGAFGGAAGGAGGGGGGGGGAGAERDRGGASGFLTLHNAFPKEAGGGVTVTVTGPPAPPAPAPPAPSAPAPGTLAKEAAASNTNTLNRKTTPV

The experiment deals with GluA1o-γ8 (GRIA1o-CACNG8 fusion construct) (Homo sapiens (Human), UniProt P42261+Q8WXS5). As to the kind of experiment: Calcium flux assay (FLIPR), inhibition of TARP γ8 dependent AMPA receptor activity. In kind it is cell-based. The conditions noted are these: GluA1o-γ8 (GRIA1o-CACNG8 fusion) in HEK293 cells, calcium flux after 15 μM glutamate. The method, boiled down:
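Glutamate (15 μM) was added to a stable HEK293 line carrying the GluA1o–γ8 fusion, which had been preincubated with compound and calcium dye in HEPES buffer, pH 7.4. Normalized FLIPR fluorescence (no compound vs 10 μM CP465022) was fitted with four parameters; pIC50 is the midpoint's negative log.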
For orientation: Calcium assays in cells follow changes in intracellular calcium, usually with a dye or a luminescent sensor.
Consider `FC(F)(F)c1ccc2nc(CC3CC3)n(-c3cc(Cl)c4[nH]ncc4c3)c2n1` [Example 411, 3-(7-Chloro-1H-indazol-5-yl)-2-(cyclopropylmethyl)-5-(trifluoromethyl)-3H-imidazo[4,5-b]pyridine], for which the IC50 is 0.158 nM.
The figure for `CCCc1nc2ccc(C(F)(F)F)nc2n1-c1cc(Cl)c2[nH]ncc2c1` [Example 412, 3-(7-Chloro-1H-indazol-5-yl)-2-propyl-5-(trifluoromethyl)-3H-imidazo[4,5-b]pyridine] is 0.126 nM.
As to `COCc1nc2ccc(C(F)(F)F)nc2n1-c1cc(Cl)c2[nH]ncc2c1` [Example 413, 3-(7-Chloro-1H-indazol-5-yl)-2-(methoxymethyl)-5-(trifluoromethyl)-3H-imidazo[4,5-b]pyridine], the IC50 was 0.398 nM.
In the case of `CC(C)Cc1nc2ccc(C(F)(F)F)nc2n1-c1cc(Cl)c2[nH]ncc2c1` [Example 414, 3-(7-Chloro-1H-indazol-5-yl)-2-isobutyl-5-(trifluoromethyl)-3H-imidazo[4,5-b]pyridine] it was 0.126 nM.
The figure for `COc1ccc2nc(C(F)(F)F)n(-c3cc(Cl)c4[nH]ncc4c3)c2n1` [Example 415, 3-(7-Chloro-1H-indazol-5-yl)-5-methoxy-2-(trifluoromethyl)-3H-imidazo[4,5-b]pyridine] is 0.0501 nM; for `FC(F)(F)Cc1nc2ccc(C(F)(F)F)nc2n1-c1cc(Cl)c2[nH]ncc2c1` [Example 416, 3-(7-Chloro-1H-indazol-5-yl)-2-(2,2,2-trifluoroethyl)-5-(trifluoromethyl)-3H-imidazo[4,5-b]pyridine] it is 0.501 nM.
The figure for `CCC(F)(F)c1nc2ccc(C(F)(F)F)nc2n1-c1cc(C)c2[nH]ncc2c1` [Example 417, 2-(1,1-Difluoropropyl)-3-(7-methyl-1H-indazol-5-yl)-5-(trifluoromethyl)-3H-imidazo[4,5-b]pyridine] is 3.16 nM; for `Cc1cc(-n2c(CCC(F)(F)F)nc3ccc(C(F)(F)F)nc32)cc2cn[nH]c12` [Example 418, 3-(7-Methyl-1H-indazol-5-yl)-5-(trifluoromethyl)-2-(3,3,3-trifluoropropyl)-3H-imidazo[4,5-b]pyridine] it is 3.98 nM; for `FC(F)(F)c1cnc2c(c1)nc(C(F)(F)F)n2-c1cc(Cl)c2[nH]ncc2c1` [Example 419, 3-(7-Chloro-1H-indazol-5-yl)-2,6-bis(trifluoromethyl)-3H-imidazo[4,5-b]pyridine] it is 0.631 nM.
Take `Cc1cc(-n2c(C(C)C)cc3cc(F)cnc32)cc2c1NC(=O)C2` [Example 420, 5-(5-Fluoro-2-isopropyl-1H-pyrrolo[2,3-b]pyridin-1-yl)-7-methylindolin-2-one]: the IC50 was 0.126 nM.
The figure for `Cc1cc(-n2c(C)cc3ccc(C(F)F)nc32)cc2c1NC(=O)C2` [Example 421, 5-(6-(Difluoromethyl)-2-methyl-1H-pyrrolo[2,3-b]pyridin-1-yl)-7-methylindolin-2-one] is 0.0794 nM.
`Cc1cc(-n2c(C=O)cc3ccc(C(F)(F)F)nc32)cc2c1NC(=O)C2` [Example 422, 1-(7-Methyl-2-oxoindolin-5-yl)-6-(trifluoromethyl)-1H-pyrrolo[2,3-b]pyridine-2-carbaldehyde]: the IC50 was 0.316 nM.
